Results on two compounds are retold here after ChEMBL document CHEMBL4373704, “Mucosal Vaccination with a Self-Adjuvanted Lipopeptide Is Immunogenic and Protective against Mycobacterium tuberculosis” (J Med Chem, 2019).

Calls of active or inactive are those of the source. No cut-off for these calls is given here.

The species named for assay [1] is Mus musculus. Description: Induction of antigen-specific immunogenicity in C57BL/6 mouse assessed as induction of pulmonary CD4+ T-lymphocyte responses by measuring lung ESAT6-specific CD4+ T-lymphocytes producing IL-2 at 14.2 ug, in measured 3 weeks after the final vaccination by immunostaining and flow cytometry. The assay is classed as functional, organism-based. In general terms: Flow cytometry measures light scatter and fluorescence of single cells or particles in a stream.

Assay [2] is filed under the species Mus musculus. Nature of the assay: Induction of antigen-specific immunogenicity in C57BL/6 mouse assessed as induction of pulmonary CD4+ T-lymphocyte responses by measuring lung ESAT6-specific CD4+ T-lymphocytes producing IL-17 at 14.2 ug, in measured 3 weeks after the final vaccination by immunostaining and flow cytometry. It is filed as functional, organism-based.

The test system of assay [3] is Mus musculus. Nature of the assay: Induction of antigen-specific immunogenicity in C57BL/6 mouse assessed as induction of pulmonary CD4+ T-lymphocyte responses by measuring spleen ESAT6-specific CD4+ T-lymphocytes producing IFNgamma at 56.8 ug, sc measured 3 weeks after the final vaccination by immunostaining and flow cytometry. The assay is classed as functional, organism-based.

For assay [4], the species on record is Mus musculus. Description: Induction of antigen-specific immunogenicity in C57BL/6 mouse assessed as induction of pulmonary CD4+ T-lymphocyte responses by measuring spleen ESAT6-specific CD4+ T-lymphocytes producing TNFalpha at 14.2 ug, in measured 3 weeks after the final vaccination by immunostaining and flow cytometry. The assay is classed as functional, organism-based.

The species named for assay [5] is Mus musculus. Description: Induction of antigen-specific immunogenicity in C57BL/6 mouse assessed as induction of pulmonary CD4+ T-lymphocyte responses by measuring spleen ESAT6-specific CD4+ T-lymphocytes producing IL-17 at 14.2 ug, in measured 3 weeks after the final vaccination by immunostaining and flow cytometry. The assay is classed as functional, organism-based.

The test system of assay [6] is Mus musculus. Description: Induction of antigen-specific immunogenicity in C57BL/6 mouse assessed as induction of pulmonary CD4+ T-lymphocyte responses by measuring spleen ESAT6-specific CD4+ T-lymphocytes producing IL-2 at 56.8 ug, sc measured 3 weeks after the final vaccination by immunostaining and flow cytometry. The assay is classed as functional, organism-based.

The test system of assay [7] is Mus musculus. Description: Induction of antigen-specific immunogenicity in C57BL/6 mouse assessed as induction of pulmonary CD4+ T-lymphocyte responses by measuring lung ESAT6-specific CD4+ T-lymphocytes producing TNFalpha at 56.8 ug, sc measured 3 weeks after the final vaccination by immunostaining and flow cytometry. It is filed as functional, organism-based.
For assay [8], the system named is Mus musculus. Nature of the assay: Induction of antigen-specific immunogenicity in C57BL/6 mouse assessed as induction of pulmonary CD4+ T-lymphocyte responses by measuring lung ESAT6-specific CD4+ T-lymphocytes producing IL-17 at 56.8 ug, sc measured 3 weeks after the final vaccination by immunostaining and flow cytometry. The assay is classed as functional, organism-based.

Assay [9] relates to Mus musculus. Description: Induction of antigen-specific immunogenicity in C57BL/6 mouse assessed as induction of pulmonary CD4+ T-lymphocyte responses by measuring spleen ESAT6-specific CD4+ T-lymphocytes producing TNFalpha at 56.8 ug, sc measured 3 weeks after the final vaccination by immunostaining and flow cytometry. It is filed as functional, organism-based.
The species named for assay [10] is Mus musculus. Description: Induction of antigen-specific immunogenicity in C57BL/6 mouse assessed as induction of pulmonary CD4+ T-lymphocyte responses by measuring lung ESAT6-specific CD4+ T-lymphocytes producing INFNgamma at 14.2 ug, in measured 3 weeks after the final vaccination by immunostaining and flow cytometry. The assay is classed as functional, organism-based.

For assay [11], the species on record is Mus musculus. Nature of the assay: Induction of antigen-specific immunogenicity in C57BL/6 mouse assessed as induction of pulmonary CD4+ T-lymphocyte responses by measuring spleen ESAT6-specific CD4+ T-lymphocytes producing IFNgamma at 14.2 ug, in measured 3 weeks after the final vaccination by immunostaining and flow cytometry. It is filed as functional, organism-based.

Assay [12] relates to Mus musculus. Nature of the assay: Induction of antigen-specific immunogenicity in C57BL/6 mouse assessed as induction of pulmonary CD4+ T-lymphocyte responses by measuring lung ESAT6-specific CD4+ T-lymphocytes producing IFNgamma at 56.8 ug, sc measured 3 weeks after the final vaccination by immunostaining and flow cytometry. It is filed as functional, organism-based.
The target of assay [13] is Toll-like receptor 2 (Homo sapiens) (UniProt O60603). Nature of the assay: Activation of YFP-tagged TLR2 (unknown origin) expressed in HEK293 cells assessed as induction of IL8 secretion at 33.5 ug/mL incubated for 16 to 18 hrs by ELISA. It is filed as cell-based. On the technique in general: An ELISA detects its analyte on a solid surface through an enzyme-linked reagent.

For assay [14], the species on record is Mus musculus. Description: Induction of antigen-specific immunogenicity in C57BL/6 mouse assessed as induction of pulmonary CD4+ T-lymphocyte responses by measuring spleen ESAT6-specific CD4+ T-lymphocytes producing IL-2 at 14.2 ug, in measured 3 weeks after the final vaccination by immunostaining and flow cytometry. The assay is classed as functional, organism-based.

Assay [15] has as its system Mus musculus. Nature of the assay: Induction of antigen-specific immunogenicity in C57BL/6 mouse assessed as induction of pulmonary CD4+ T-lymphocyte responses by measuring spleen ESAT6-specific CD4+ T-lymphocytes producing IL-17 at 56.8 ug, sc measured 3 weeks after the final vaccination by immunostaining and flow cytometry. It is filed as functional, organism-based.

The species entered for assay [16] is Mus musculus. Description: Induction of antigen-specific immunogenicity in C57BL/6 mouse assessed as induction of pulmonary CD4+ T-lymphocyte responses by measuring lung ESAT6-specific CD4+ T-lymphocytes producing TNFalpha at 14.2 ug, in measured 3 weeks after the final vaccination by immunostaining and flow cytometry. The assay is classed as functional, organism-based.

Assay [17] deals with Mus musculus. Description: Induction of antigen-specific immunogenicity in C57BL/6 mouse assessed as induction of pulmonary CD4+ T-lymphocyte responses by measuring lung ESAT6-specific CD4+ T-lymphocytes producing IL-2 at 56.8 ug, sc measured 3 weeks after the final vaccination by immunostaining and flow cytometry. The assay is classed as functional, organism-based.
The test system of assay [18] is Mus musculus. Nature of the assay: Induction of antigen-specific immunogenicity in C57BL/6 mouse assessed as induction of pulmonary CD4+ T-lymphocyte responses by measuring spleen ESAT6-specific CD8+ T-lymphocytes producing IFNgamma at 10 ug, sc measured 3 weeks after the final vaccination by immunostaining and flow cytometry. It is filed as functional, organism-based.

The species entered for assay [19] is Mus musculus. Nature of the assay: Induction of antigen-specific immunogenicity in C57BL/6 mouse assessed as induction of pulmonary CD4+ T-lymphocyte responses by measuring lung ESAT6-specific CD8+ T-lymphocytes producing IL-2 at 10 ug, in measured 3 weeks after the final vaccination by immunostaining and flow cytometry. It is filed as functional, organism-based.

Assay [20] deals with Toll-like receptor 2 (Homo sapiens) (UniProt O60603). Description: Activation of YFP-tagged TLR2 (unknown origin) expressed in HEK293 cells assessed as induction of IL8 secretion at 8 ug/mL incubated for 16 to 18 hrs by ELISA. The assay is classed as cell-based.
The species named for assay [21] is Mus musculus. Nature of the assay: Induction of antigen-specific immunogenicity in C57BL/6 mouse assessed as induction of pulmonary CD4+ T-lymphocyte responses by measuring lung ESAT6-specific CD8+ T-lymphocytes producing IL-17 at 10 ug, in measured 3 weeks after the final vaccination by immunostaining and flow cytometry. The assay is classed as functional, organism-based.

For assay [22], the species on record is Mus musculus. Description: Induction of antigen-specific immunogenicity in C57BL/6 mouse assessed as induction of pulmonary CD4+ T-lymphocyte responses by measuring lung ESAT6-specific CD8+ T-lymphocytes producing IFNgamma at 10 ug, in measured 3 weeks after the final vaccination by immunostaining and flow cytometry. It is filed as functional, organism-based.

Assay [23] relates to Mus musculus. Nature of the assay: Induction of antigen-specific immunogenicity in C57BL/6 mouse assessed as induction of pulmonary CD4+ T-lymphocyte responses by measuring spleen ESAT6-specific CD8+ T-lymphocytes producing TNFalpha at 10 ug, sc measured 3 weeks after the final vaccination by immunostaining and flow cytometry. The assay is classed as functional, organism-based.

The species named for assay [24] is Mus musculus. Nature of the assay: Induction of antigen-specific immunogenicity in C57BL/6 mouse assessed as induction of pulmonary CD4+ T-lymphocyte responses by measuring lung ESAT6-specific CD8+ T-lymphocytes producing TNFalpha at 10 ug, in measured 3 weeks after the final vaccination by immunostaining and flow cytometry. It is filed as functional, organism-based.

Chain of Toll-like receptor 2 (Homo sapiens) (O60603 whole entry): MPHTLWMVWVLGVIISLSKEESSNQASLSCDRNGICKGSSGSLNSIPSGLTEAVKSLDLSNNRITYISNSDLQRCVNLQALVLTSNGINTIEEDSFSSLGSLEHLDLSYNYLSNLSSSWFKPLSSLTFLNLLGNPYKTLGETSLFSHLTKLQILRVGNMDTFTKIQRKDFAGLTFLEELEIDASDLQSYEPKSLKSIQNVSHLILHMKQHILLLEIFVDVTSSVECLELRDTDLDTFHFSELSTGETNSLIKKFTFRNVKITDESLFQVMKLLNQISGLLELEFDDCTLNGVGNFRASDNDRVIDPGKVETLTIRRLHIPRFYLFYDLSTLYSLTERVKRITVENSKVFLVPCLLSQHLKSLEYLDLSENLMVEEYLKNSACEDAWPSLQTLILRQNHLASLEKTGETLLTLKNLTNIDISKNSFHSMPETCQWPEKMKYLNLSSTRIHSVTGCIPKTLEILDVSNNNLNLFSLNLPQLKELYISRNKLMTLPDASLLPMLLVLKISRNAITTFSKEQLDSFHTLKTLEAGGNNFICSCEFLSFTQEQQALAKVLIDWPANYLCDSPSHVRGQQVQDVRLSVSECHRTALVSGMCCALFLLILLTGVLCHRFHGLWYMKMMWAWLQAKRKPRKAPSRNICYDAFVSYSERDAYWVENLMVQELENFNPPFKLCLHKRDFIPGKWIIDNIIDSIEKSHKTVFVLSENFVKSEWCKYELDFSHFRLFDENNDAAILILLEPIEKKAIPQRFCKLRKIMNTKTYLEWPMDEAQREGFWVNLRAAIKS

With `CCCCCCCCCCCCCCCC(=O)OC[C@H](CSC[C@H](N)C(=O)N[C@@H](CO)C(=O)N[C@@H](CCCCN)C(=O)N[C@@H](CCCCN)C(=O)N[C@@H](CCCCN)C(=O)N[C@@H](CCCCN)C(=O)NCCOCCOCC(=O)N[C@@H](CCSC)C(=O)N[C@H](C(=O)N[C@@H](CCC(=O)O)C(=O)N[C@@H](CCC(N)=O)C(=O)N[C@@H](CCC(N)=O)C(=O)N[C@@H](Cc1c[nH]c2ccccc12)C(=O)N[C@@H](CC(N)=O)C(=O)N[C@@H](Cc1ccccc1)C(=O)N[C@@H](C)C(=O)NCC(=O)N[C@H](C(=O)N[C@@H](CCC(=O)O)C(=O)N[C@@H](C)C(=O)N[C@@H](C)C(=O)N[C@@H](C)C(=O)N[C@@H](CO)C(=O)N[C@@H](C)C(=O)N[C@H](C(=O)N[C@@H](CCC(N)=O)C(=O)NCC(=O)N[C@@H](CCC(N)=O)C(=O)N[C@H](C(=O)N[C@@H](CCSC)C(=O)N[C@@H](Cc1ccc(O)cc1)C(=O)N[C@@H](CC(N)=O)C(=O)N[C@@H](Cc1ccc(O)cc1)C(=O)N1CCC[C@H]1C(=O)N[C@@H](C)C(=O)N[C@@H](CCSC)C(=O)O)[C@@H](C)CC)[C@@H](C)CC)[C@@H](C)CC)[C@@H](C)O)OC(=O)CCCCCCCCCCCCCCC`, the result in assay [1], in assay [2], in [4], in assay [5], in [6] and in [9] was Active. Moreover, the result in assay [10], in [11], in [13], in [14] and in [16] was Active. Further, the outcome in assay [3], in [7], in assay [8], in assay [12], in assay [15] and in assay [17] was inactive.

H-QIMYNYPAM-OH: the outcome in assay [18] and in assay [23] was Active. For the same compound, the outcome in assay [19], in [20], in assay [21], in assay [22] and in assay [24] was inactive.
